Experimental data as given in patent US20250257055A1, “TERTIARY AMIDE DERIVATIVES SUBSTITUTED WITH 4-MEMBERED RING STRUCTURE” (Sumitomo Pharma Co., Ltd., priority 2024, published 2025).
Where two headings read alike, the source gives them in different places.

Key:
[1] = system: G-401 cells; experiment: Cell proliferation inhibition experiment using G-401 cells; format: cell-based; conditions: Homo sapiens, 72 h, cultured for 3 days, CellTiter-Glo
Description: G-401 cells (derived from malignant rhabdoid tumor) were obtained from the American Type Culture Collection (ATCC). G-401 cells were cultured in McCoy's 5A medium containing 10% fetal bovine serum and 1% penicillin/streptomycin under conditions of 37° C. and 5% CO2.
500 cells per well were seeded in a 384-well plate. One day after seeding, Examples 1 to 35 were added so that the final concentration of DMSO was 0.1%, and the cells were cultured for 3 days. After the culture was completed, the cell viability was measured using CellTiter-Glo Luminescent Cell Viability Assay (Promega, G7570).

[2] = Membrane permeability test (PAMPA); format: in vitro ADME
Description: The membrane permeability of the test compound was tested by parallel artificial membrane permeability assay (PAMPA) as follows. 200 μL of System solution (pION Inc.) containing the test compound and 4 μL of GIT Lipid-0 (pION Inc.) were added to the donor plate. 200 μL of Acceptor Sink Buffer (pION Inc.) was added to the acceptor plate. Both plates were overlapped and incubated at 37° C. for 4 hours, after which the UV of the solutions on the acceptor side and donor side was measured using a UV plate reader (190-500 nm). Compounds with poor UV absorption were measured using LC-MS. The permeability coefficient Pe (10^−6 cm/sec) of the drug was calculated using the following equation.

[3] = target: recombinant p300 (Homo sapiens (Human), UniProt Q09472); experiment: HAT activity inhibition experiment (SensoLyte HAT(p300) Assay Kit); format: biochemical; conditions: recombinant p300, histone H3 peptide, acetyl CoA
recombinant p300, sequence (Q09472 whole entry): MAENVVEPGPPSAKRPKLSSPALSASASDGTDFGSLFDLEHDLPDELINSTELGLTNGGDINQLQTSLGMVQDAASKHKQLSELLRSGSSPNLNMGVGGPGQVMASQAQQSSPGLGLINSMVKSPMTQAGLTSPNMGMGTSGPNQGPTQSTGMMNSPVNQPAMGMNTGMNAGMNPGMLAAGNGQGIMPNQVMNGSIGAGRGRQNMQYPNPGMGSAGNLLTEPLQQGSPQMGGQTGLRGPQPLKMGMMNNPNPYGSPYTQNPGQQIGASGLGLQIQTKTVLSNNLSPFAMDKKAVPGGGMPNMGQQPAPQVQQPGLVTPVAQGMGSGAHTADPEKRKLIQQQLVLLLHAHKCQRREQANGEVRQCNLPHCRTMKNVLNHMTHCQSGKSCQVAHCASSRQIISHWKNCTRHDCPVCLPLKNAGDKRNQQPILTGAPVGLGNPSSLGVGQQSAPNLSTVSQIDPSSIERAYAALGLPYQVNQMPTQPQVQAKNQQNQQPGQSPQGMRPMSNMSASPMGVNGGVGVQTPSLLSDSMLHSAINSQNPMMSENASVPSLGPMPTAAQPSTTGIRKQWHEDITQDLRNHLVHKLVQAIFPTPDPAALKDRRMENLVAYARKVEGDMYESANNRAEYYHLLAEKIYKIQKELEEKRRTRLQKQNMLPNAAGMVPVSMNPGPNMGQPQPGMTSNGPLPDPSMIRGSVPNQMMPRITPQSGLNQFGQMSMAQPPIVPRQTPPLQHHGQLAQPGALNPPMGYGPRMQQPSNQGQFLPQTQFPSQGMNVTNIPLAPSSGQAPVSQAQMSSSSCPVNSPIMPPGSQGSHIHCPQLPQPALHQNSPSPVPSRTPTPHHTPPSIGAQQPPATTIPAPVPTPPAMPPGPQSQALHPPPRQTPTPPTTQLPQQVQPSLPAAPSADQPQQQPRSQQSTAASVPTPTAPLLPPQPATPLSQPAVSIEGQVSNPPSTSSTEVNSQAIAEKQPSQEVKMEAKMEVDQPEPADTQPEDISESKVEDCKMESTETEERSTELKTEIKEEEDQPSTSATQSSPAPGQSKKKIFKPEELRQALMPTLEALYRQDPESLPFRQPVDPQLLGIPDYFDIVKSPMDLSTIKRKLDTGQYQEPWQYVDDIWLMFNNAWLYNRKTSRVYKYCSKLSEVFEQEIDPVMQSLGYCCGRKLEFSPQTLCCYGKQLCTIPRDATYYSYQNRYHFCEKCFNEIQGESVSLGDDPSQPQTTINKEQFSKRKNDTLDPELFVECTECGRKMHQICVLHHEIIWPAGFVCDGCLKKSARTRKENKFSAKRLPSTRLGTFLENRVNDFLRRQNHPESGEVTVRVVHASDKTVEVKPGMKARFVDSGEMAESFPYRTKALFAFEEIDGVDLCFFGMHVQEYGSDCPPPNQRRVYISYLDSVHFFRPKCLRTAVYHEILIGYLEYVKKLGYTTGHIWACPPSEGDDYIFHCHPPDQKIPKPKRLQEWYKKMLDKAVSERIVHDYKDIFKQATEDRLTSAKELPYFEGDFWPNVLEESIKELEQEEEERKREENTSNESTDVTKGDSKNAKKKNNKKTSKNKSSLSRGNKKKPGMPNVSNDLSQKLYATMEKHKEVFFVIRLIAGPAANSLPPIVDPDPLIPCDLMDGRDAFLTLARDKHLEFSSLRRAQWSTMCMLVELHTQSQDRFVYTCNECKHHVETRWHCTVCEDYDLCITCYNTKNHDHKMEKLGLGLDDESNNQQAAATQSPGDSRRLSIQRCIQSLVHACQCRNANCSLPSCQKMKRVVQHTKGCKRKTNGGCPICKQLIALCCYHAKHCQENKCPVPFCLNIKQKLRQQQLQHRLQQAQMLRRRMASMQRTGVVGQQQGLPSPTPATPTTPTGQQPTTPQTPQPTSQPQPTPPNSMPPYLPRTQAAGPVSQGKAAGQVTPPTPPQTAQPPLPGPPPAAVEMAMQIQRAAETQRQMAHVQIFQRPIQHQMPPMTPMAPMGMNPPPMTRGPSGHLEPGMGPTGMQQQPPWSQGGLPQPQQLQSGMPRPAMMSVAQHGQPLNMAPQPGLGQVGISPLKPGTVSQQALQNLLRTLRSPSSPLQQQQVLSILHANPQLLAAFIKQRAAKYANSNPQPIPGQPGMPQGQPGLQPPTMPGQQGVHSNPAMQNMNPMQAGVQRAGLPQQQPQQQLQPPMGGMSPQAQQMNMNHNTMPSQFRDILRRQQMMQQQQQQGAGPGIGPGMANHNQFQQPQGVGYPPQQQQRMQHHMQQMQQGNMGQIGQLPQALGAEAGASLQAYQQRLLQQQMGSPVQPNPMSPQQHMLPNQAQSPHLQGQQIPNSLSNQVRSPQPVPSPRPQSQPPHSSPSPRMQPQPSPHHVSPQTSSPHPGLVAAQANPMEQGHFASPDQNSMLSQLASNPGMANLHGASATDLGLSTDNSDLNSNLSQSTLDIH
Description: The HAT activity inhibitory ability of HAT inhibitors was evaluated using SensoLyte HAT(p300) Assay Kit (ANASPEC, AS-72172). Specifically, 7.5 μL of the compound of Examples […] diluted with assay buffer was added to 7.5 μL of recombinant p300 solution diluted 10 times with assay buffer, and the mixture was incubated at room temperature for 10 minutes. 7.5 μL of acetyl CoA solution diluted 10 times with assay buffer and 15 μL of histone H3 peptide diluted 10 times with assay buffer were added thereto, and the mixture was incubated at 37° C. for 30 minutes. 37.5 μL of Stop Solution was added to stop the reaction. 75 μL of p300 Developer solution diluted 50 times with assay buffer was added, and the mixture was incubated at room temperature for 30 minutes under light-shielded conditions. The fluorescence at 513 nm when irradiated with 389 nm excitation light was measured using a multiplate reader.

[4] = pH 5.0, 37° C., read-out: pH 5.0 Pe
[5] = pH 7.4, 37° C., read-out: pH 7.4 Pe

Papp at 4 h [2, 4] [×10⁻⁶ cm/s] | Papp at 4 h [2, 5] [×10⁻⁶ cm/s] | IC50 [3] [nM] | SMILES | IC50 [1] [nM]
13.5 | 14.3 | – | O=C1N[C@]2(CCc3cc(-c4cnn(C5CN(C6COC6)C5)c4)ccc32)C(=O)N1CC(=O)N(Cc1ccc(F)cn1)C1(C(F)(F)F)CC(F)(F)C1 [Example 8, N-[3,3-difluoro-1-(trifluoromethyl)cyclobutyl]-N-[(5-fluoropyridin-2-yl)methyl]-2-[(1′S)-5′-{1-[1-(oxetan-3-yl)azetidin-3-yl]-1H-pyrazol-4-yl}-2,5-dioxo-2′,3′-dihydrospiro[imidazolidine-4,1′-inden]-1-yl]acetamide] | 247
25.7 | 30 | – | CN1CC(N(Cc2ccc(F)cc2)C(=O)CN2C(=O)N[C@@]3(C[C@H](F)c4cc(-c5cnn(C)c5)c(F)cc43)C2=O)(C(F)(F)F)C1 [Example 28, 2-[(1′R,3'S)-3′,6′-difluoro-5′-(1-methyl-1H-pyrazol-4-yl)-2,5-dioxo-2′,3′-dihydrospiro[imidazolidine-4,1′-inden]-1-yl]-N-[(4-fluorophenyl)methyl]-N-[1-methyl-3-(trifluoromethyl)azetidin-3-yl]acetamide] | –
30 | 33.3 | 6.1 | CN1CC(N(Cc2ccc(F)cc2)C(=O)CN2C(=O)N[C@]3(C[C@@H](F)c4cc(-c5cnn(C)c5F)ccc43)C2=O)(C(F)(F)F)C1 [Example 15, 2-[(1′S,3′R)-3′-fluoro-5′-(5-fluoro-1-methyl-1H-pyrazol-4-yl)-2,5-dioxo-2′,3′-dihydrospiro[imidazolidine-4,1′-inden]-1-yl]-N-[(4-fluorophenyl)methyl]-N-[1-methyl-3-(trifluoromethyl)azetidin-3-yl]acetamide] | 33
28.1 | 32.2 | 2.3 | CN1CC(N(Cc2ccc(F)cc2)C(=O)CN2C(=O)N[C@]3(C[C@@H](F)c4cc(-c5cn(C)nc5F)ccc43)C2=O)(C(F)(F)F)C1 [Example 17, 2-[(1′S,3′R)-3′-fluoro-5′-(3-fluoro-1-methyl-1H-pyrazol-4-yl)-2,5-dioxo-2′,3′-dihydrospiro[imidazolidine-4,1′-inden]-1-yl]-N-[(4-fluorophenyl)methyl]-N-[1-methyl-3-(trifluoromethyl)azetidin-3-yl]acetamide] | 25
26.1 | 27.9 | 124 | CN1CCn2ncc(-c3ccc4c(c3)[C@H](F)C[C@]43NC(=O)N(CC(=O)N(Cc4ccc(F)cc4)C4(C(F)(F)F)COC4)C3=O)c2C1 [Example 14, 2-[(1′S, 3′R)-3′-fluoro-5′-(5-methyl-4,5,6,7-tetrahydropyrazolo[1,5-a]pyrazin-3-yl)-2,5-dioxo-2′,3′-dihydrospiro[imidazolidine-4,1′-inden]-1-yl]-N-[(4-fluorophenyl)methyl]-N-[3-(trifluoromethyl)oxetan-3-yl]acetamide] | 677
7.4 | 19 | 19 | CN1CC(F)(Cn2cc(-c3ccc4c(c3)CC[C@]43NC(=O)N(CC(=O)N(Cc4ccc(F)cc4)C4(C(F)(F)F)COC4)C3=O)cn2)C1 [Example 2, 2-[(1′S)-5′-{1-[(3-fluoro-1-methylazetidin-3-yl)methyl]-1H-pyrazol-4-yl}-2,5-dioxo-2′,3′-dihydrospiro[imidazolidine-4,1′-inden]-1-yl]-N-[(4-fluorophenyl)methyl]-N-[3-(trifluoromethyl)oxetan-3-yl]acetamide] | 89
26.2 | 26.9 | 5.2 | CN1CC(N(Cc2ccc(F)cc2)C(=O)CN2C(=O)N[C@]3(CCc4cc(-c5cnn(C(C)(C)C#N)c5)ccc43)C2=O)(C(F)(F)F)C1 [Example 13, 2-{(1′S)-5′-[1-(2-cyanopropan-2-yl)-1H-pyrazol-4-yl]-2,5-dioxo-2′,3′-dihydrospiro[imidazolidine-4,1′-inden]-1-yl}-N-[(4-fluorophenyl)methyl]-N-[1-methyl-3-(trifluoromethyl)azetidin-3-yl]acetamide] | 20
24.4 | 28.9 | 7.2 | CN1CC(N(Cc2ccc(F)cc2)C(=O)CN2C(=O)N[C@]3(C[C@@H](F)c4cc(-c5cnn(C6CCOCC6)c5)ccc43)C2=O)(C(F)(F)F)C1 [Example 19, 2-{(1′S,3′R)-3′-fluoro-5′-[1-(oxan-4-yl)-1H-pyrazol-4-yl]-2,5-dioxo-2′,3′-dihydrospiro[imidazolidine-4,1′-inden]-1-yl}-N-[(4-fluorophenyl)methyl]-N-[1-methyl-3-(trifluoromethyl)azetidin-3-yl]acetamide] | 24

More lines, now with the values behind:

SMILES | Papp at 4 h [2, 4] [×10⁻⁶ cm/s] | Papp at 4 h [2, 5] [×10⁻⁶ cm/s] | IC50 [3] [nM] | IC50 [1] [nM]
CN(C)C1(Cn2cc(-c3ccc4c(c3)[C@H](F)C[C@]43NC(=O)N(CC(=O)N(Cc4ccc(F)cc4)C4(C(F)(F)F)COC4)C3=O)cn2)COC1 [Example 22, 2-[(1′S,3′R)-5′-(1-{[3-(dimethylamino)oxetan-3-yl]methyl}-1H-pyrazol-4-yl)-3′-fluoro-2,5-dioxo-2′,3′-dihydrospiro[imidazolidine-4,1′-inden]-1-yl]-N-[(4-fluorophenyl)methyl]-N-[3-(trifluoromethyl)oxetan-3-yl]acetamide] | 21.2 | 23 | 11 | 68
CN1CC(N(Cc2ccc(F)cc2)C(=O)CN2C(=O)N[C@]3(C[C@@H](F)c4cc(-c5cnn(C)c5)c(F)cc43)C2=O)(C(F)(F)F)C1 [Example 29, 2-[(1′S,3′R)-3′,6′-difluoro-5′-(1-methyl-1H-pyrazol-4-yl)-2,5-dioxo-2′,3′-dihydrospiro[imidazolidine-4,1′-inden]-1-yl]-N-[(4-fluorophenyl)methyl]-N-[1-methyl-3-(trifluoromethyl)azetidin-3-yl]acetamide] | 23.9 | 28.3 | 2.8 | 17
O=C1N[C@]2(CCc3cc(-c4cnn(C5CN(C6COC6)C5)c4)ccc32)C(=O)N1CC(=O)N(Cc1ccc(F)cn1)C1(C(F)(F)F)COC1 [Example 6, N-[(5-fluoropyridin-2-yl)methyl]-2-[(1′S)-5′-{1-[1-(oxetan-3-yl)azetidin-3-yl]-1H-pyrazol-4-yl}-2,5-dioxo-2′,3′-dihydrospiro[imidazolidine-4,1′-inden]-1-yl]-N-[3-(trifluoromethyl)oxetan-3-yl]acetamide] | 3.1 | 5.5 | 19.8 | 391
CN1CC(N(Cc2ccc(F)cn2)C(=O)CN2C(=O)N[C@]3(CCc4cc(-c5cnn(C)c5)ccc43)C2=O)(C(F)(F)F)C1 [Example 21, N-[(5-fluoropyridin-2-yl)methyl]-2-[(1′S)-5′-(1-methyl-1H-pyrazol-4-yl)-2,5-dioxo-2′,3′-dihydrospiro[imidazolidine-4,1′-inden]-1-yl]-N-[1-methyl-3-(trifluoromethyl)azetidin-3-yl]acetamide] | 6.2 | 21.2 | 52 | 353
CN1CC(N(Cc2ccc(C(F)(F)F)cc2)C(=O)CN2C(=O)N[C@]3(C[C@@H](F)c4cc(-c5cnn(C)c5)ccc43)C2=O)(C(F)(F)F)C1 [Example 35, 2-[(1′S,3′R)-3′-fluoro-5′-(1-methyl-1H-pyrazol-4-yl)-2,5-dioxo-2′,3′-dihydrospiro[imidazolidine-4,1′-inden]-1-yl]-N-[1-methyl-3-(trifluoromethyl)azetidin-3-yl]-N-{[4-(trifluoromethyl)phenyl]methyl}acetamide] | 31.2 | 33.7 | 5.2 | 72
CN1CC(N(Cc2ccc(F)cn2)C(=O)CN2C(=O)N[C@]3(C[C@@H](F)c4cc(-c5cnn(C(C)(C)CO)c5)ccc43)C2=O)(C(F)(F)F)C1 [Example 27, 2-{(1′S,3′R)-3′-fluoro-5′-[1-(1-hydroxy-2-methylpropan-2-yl)-1H-pyrazol-4-yl]-2,5-dioxo-2′,3′-dihydrospiro[imidazolidine-4,1′-inden]-1-yl}-N-[(5-fluoropyridin-2-yl)methyl]-N-[1-methyl-3-(trifluoromethyl)azetidin-3-yl]acetamide] | 0.6 | 3.5 | 6.8 | 22
CN1CC(N(Cc2ccc(F)cc2)C(=O)CN2C(=O)N[C@]3(CCc4cc(-c5cn(C)nc5F)ccc43)C2=O)(C(F)(F)F)C1 [Example 18, 2-[(1′S)-5′-(3-fluoro-1-methyl-1H-pyrazol-4-yl)-2,5-dioxo-2′,3′-dihydrospiro[imidazolidine-4,1′-inden]-1-yl]-N-[(4-fluorophenyl)methyl]-N-[1-methyl-3-(trifluoromethyl)azetidin-3-yl]acetamide] | 28.6 | 31.8 | 58.2 | 292
